Patent US8921271B2, “Herbicidal composition comprising flazasulfuron and metribuzin” (Ishihara Sangyo Kaisha, Ltd., priority 2011, dated 2014)

What was measured:
[1] = test system: goosegrass; assay: Test Example 2: pot test, foliar treatment at 5 leaf stage, visual growth inhibition of goosegrass; type: in vivo, Eleusine indica (L.) Gaertn.; conditions: Eleusine indica, foliar treatment at 5 leaf stage with 0.25 vol % Agral, 28th day after treatment, read-out: Growth inhibition rate (%) of goosegrass, Measured value
Protocol: Upland field soil was put into a 1/1,000,000 ha pot, and seeds of goosegrass (Eleusine indica (L.) Gaertn.) were sown. When goosegrass reached 5 leaf stage, SHIBAGEN DF (tradename) and Unimark (tradename) in predetermined amounts were diluted with water (corresponding to 200 L/ha) containing 0.25 vol % of an agricultural adjuvant (tradename: Agral, manufactured by Syngenta crop protection) and applied for foliar treatment by a small sprayer.
On the 28th day after the treatment, the state of growth of goosegrass was visually observed, and the growth inhibition rate (%) obtained in the same manner as in Test Example 1 is shown in Table 2.

[2] = test system: shattercane; assay: Test Example 4: pot test, soil treatment, visual growth inhibition of shattercane; type: in vivo, Sorghum bicolor (L.) Moench.; conditions: Sorghum bicolor, soil treatment on the day after sowing, 14th day after treatment, read-out: Growth inhibition rate (%) of shattercane, Measured value
Protocol: Upland field soil was put into a 1/1,000,000 ha pot, and seeds of shattercane (Sorghum bicolor (L.) Moench.) were sown. On the next day, SHIBAGEN DF (tradename) and Unimark (tradename) in predetermined amounts were diluted with water corresponding to 300 L/ha and applied for soil treatment by a small sprayer.
On the 14th day after the treatment, the state of growth of shattercane was visually observed, and the growth inhibition rate (%) obtained in the same manner as in Test Example 1 is shown in Table 4.

[3] = test system: ivy-leaved morningglory; assay: Test Example 3: pot test, treatment the day after sowing, visual growth inhibition of ivy-leaved morningglory; type: in vivo, Ipomoea hederacea (L.) Jacq.; conditions: Ipomoea, treatment on the day after sowing, 14th day after treatment, read-out: Growth inhibition rate (%) of ivy-leaved morningglory, Measured value
Protocol: Upland field soil was put into a 1/1,000,000 ha pot, and seeds of ivy-leaved momingglory (Ipomoea hederacea (L.) Jacq.) were sown. On the next day, SHIBAGEN DF (tradename) and Unimark (tradename) in predetermined amounts were diluted with water corresponding to 300 L/ha and applied for […] by a small sprayer. On the 14th day after the treatment, the state of growth of ivy-leaved momingglory was visually observed, and the growth inhibition rate (%) obtained in the same manner as in Test Example 1 is shown in Table 3.

[4] = test system: summergrass, giant foxtail, redroot pigweed and threeseeded copperleaf; assay: Test Example 5: field test, foliar treatment, weed coverage (residual activity); type: in vivo; conditions: for Weed coverage (%) 6th day after treatment / Weed coverage (%) 20th day after treatment / Weed coverage (%) 33rd day after treatment: field, foliar treatment with 0.25 vol % Agral, coverage relative to non-treated area; for change in weed coverage: on the 20th day after the treatment, single active ingredient, field test
Excerpt: In a field in which summergrass (Digitaria ciliaris (Retz.) Koel), giant foxtail (Setaria faberi Herrm.), redroot pigweed (Amaranthus retroflexus L.) and threeseeded copperleaf (Acalypha australis L.) emerged, was compartmentalized into compartments of 0.5×1 m. When summergrass reached from 5 to 10 leaf stage, giant foxtail reached from 6 to 7 leaf stage, threeseeded copperleaf reached from 4 to 10 leaf stage and redroot pigweed reached from 6 to 9 leaf stage, SHIBAGEN DF (tradename) and Unimark (tradename) in predetermined amounts were diluted with water (corresponding to 200 L/ha) containing 0.25 vol % of an agricultural adjuvant Agral (tradename) and applied for foliar treatment by a small sprayer in each compartment.
On the 6th, 20th and 33rd days after the treatment, the weed coverage (%) of the above four types of weeds in each compartment was visually observed, and the results are shown in Table 5 and FIG. 1. The weed coverage (%) was calculated in accordance with the following formula.
A: (the area of the ground surface covered with the weed aerial part (leaves and stem) in the treated area)
B: (the area of the ground surface covered with the weed aerial part (leaves and stem) in the non-treated area) Weed coverage(%)=(A/B)×100
In FIG. 1, x-x represents the weed coverage in the area treated with flazasulfuron, ▴-▴ represents the weed coverage in the area treated with metribuzin, and ●-● represents the weed coverage in the area treated with flazasulfuron and metribuzin in combination.

[5] = test system: goosegrass; assay: Test Example 1: pot test, soil treatment, visual growth inhibition of goosegrass; type: in vivo, Eleusine indica (L.) Gaertn.; conditions: Eleusine indica, 24 h, soil treatment one day after sowing, 14th day after treatment, read-out: Growth inhibition rate (%) of goosegrass, Measured value
Protocol: Upland field soil was put into a 1/1,000,000 hectare pot, and seeds of goosegrass (Eleusine indica (L.) Gaertn.) were sown. One day later, water dispersible granules containing flazasulfuron as an active ingredient (tradename: SHIBAGEN DF, manufactured by Ishihara Sangyo Kaisha, Ltd.) and water dispersible granules containing metribuzin as an active ingredient (tradename: Unimark, manufactured by UPL) in predetermined amounts were diluted with water corresponding to 200 L/ha and applied for soil treatment by a small sprayer.
On the 14th day after the treatment, the state of growth of goosegrass was visually observed to determine the growth inhibition rate (%) (measured value) in accordance with the following evaluation standard. Further, in accordance with the Colby's formula, the growth inhibition rate (%) (calculated value) was calculated. Growth inhibition rate(%)=0 (equivalent to the non-treated area) to 100 (complete kill)

SMILES | inhibition at 37.5 g/ha ([1]; dose 37.5 g/ha) | inhibition at 15 g/ha ([2]; dose 15 g/ha) | inhibition at 100 g/ha ([3]; dose 100 g/ha) | Weed coverage (%) 6th day after treatment ([4]; dose 37.5 g/ha) | Weed coverage (%) 20th day after treatment ([4]; dose 37.5 g/ha) | Weed coverage (%) 33rd day after treatment ([4]; dose 37.5 g/ha) | change in weed coverage [4] | inhibition at 18.75 g/ha ([5]; dose 18.75 g/ha, 0 = non-treated, 100 = complete kill) | inhibition at 800 g/ha ([1]; dose 800 g/ha) | inhibition at 1000 g/ha ([1]; dose 1,000 g/ha) | inhibition at 2000 g/ha ([2]; dose 2,000 g/ha) | inhibition at 300 g/ha ([3]; dose 300 g/ha) | Weed coverage (%) 6th day after treatment ([4]; dose 1,200 g/ha) | Weed coverage (%) 20th day after treatment ([4]; dose 1,200 g/ha) | Weed coverage (%) 33rd day after treatment ([4]; dose 1,200 g/ha) | inhibition at 300 g/ha ([5]; dose 300 g/ha) | inhibition at 600 g/ha ([5]; dose 600 g/ha)
COc1cc(OC)nc(NC(=O)NS(=O)(=O)c2ncccc2C(F)(F)F)n1 [Flazasulfuron, 1-(4,6-dimethoxypyrimidin-2-yl)-3-(3-trifluoromethyl-2-pyridylsulfonyl)urea] | 25% | 30% | 80% | 26% | 30% | 65% | an increase in the weed coverage was confirmed | 30% | – | – | – | – | – | – | – | – | –
CSc1nnc(C(C)(C)C)c(=O)n1N [Metribuzin, 4-amino-6-tertiary butyl-3-methylthio-1,2,4-triazin-5(4H)-one] | – | – | – | – | – | – | an increase in the weed coverage was confirmed | – | 83% | 90% | 20% | 0% | 19% | 24% | 35% | 55% | 73%
